# Measurements taken from patent US8513260B2, “Pyrazinylpyrazoles” (Bayer CropScience AG, priority 2009, dated 2013).
# System: Tick nymphs (Amblyomma hebraeum)
# Assay: Amblyomma hebraeum test (AMBYHE)
# Format: in vivo
# Conditions: 100 ppm; immersed one minute; after 42 days
# Method: Amblyomma hebraeum Test (AMBYHE) Solvent: dimethyl sulphoxide To prepare an appropriate active ingredient formulation, 10 mg of active ingredient are mixed with 0.5 ml of dimethyl sulphoxide and the concentrate is diluted with water to the desired concentration. Tick nymphs (Amblyomma hebraeum) are placed into perforated plastic beakers and immersed in the desired concentration for one minute. The ticks are transferred on filter paper into a Petri dish and stored in a climate-controlled cabinet. After 42 days, the kill in % is determined. 100% means that all of the ticks have been killed; 0% means that none of the ticks have been killed.
row,Structure (SMILES),efficacy (kill)
1,COc1nccnc1-n1nc(C(F)(F)F)c(-c2cc(Cl)c3c(c2)OCO3)c1N [Ex. 48],100%
2,CCc1nn(-c2nccnc2OC)c(N)c1-c1cc(Cl)c2c(c1)OCO2 [Ex. 76],100%

# System: unfed adult fleas (Ctenocephalides felis)
# Assay: Ctenocephalides felis test (CTECFE)
# Format: in vivo
# Conditions: Ctenocephalides felis, 48 h; 100 ppm in citrated cow's blood; after 2 days; read-out: efficacy (kill)
# Method: Ctenocephalides felis Test ([…]) Solvent: 1 part by weight of dimethyl sulphoxide For the purpose of preparing an appropriate active ingredient formulation, 10 mg of active ingredient are mixed with 0.5 ml of dimethyl sulphoxide. A portion of the concentrate is diluted with citrated cow's blood and the desired concentration is established. About 20 unfed adult fleas (Ctenocephalides felis) are introduced into a chamber closed at the top and bottom with gauze. A metal cylinder, the bottom of which is closed with Parafilm, is placed onto the chamber. The cylinder contains the blood/active ingredient preparation, which can be imbibed by the fleas through the Parafilm membrane. After 2 days, the kill in % is determined. 100% means that all fleas have been killed; 0% means that none of the fleas have been killed.
row,Structure (SMILES),pest or weed control at 100 ppm
1,COc1nccnc1-n1nc(C(F)(F)F)c(-c2cc(C(F)(F)F)cc(C(F)(F)F)c2)c1N [Ex. 14],100%
2,COc1nccnc1-n1nc(C(F)(F)F)c(-c2cc(Cl)c3c(c2)OCO3)c1N [Ex. 48],100%
3,COc1nccnc1-n1nc(C)c(-c2cc(Cl)c3c(c2)OCO3)c1N [Ex. 75],100%
4,CCc1nn(-c2nccnc2OC)c(N)c1-c1cc(Cl)c2c(c1)OCO2 [Ex. 76],90%

# System: Boophilus microplus
# Assay: Boophilus microplus test (BOOPMI injection)
# Format: in vivo
# Conditions: Rhipicephalus microplus, 168 h; 20 μg animal; injection into the abdomen; after 7 days, laying of fertile eggs; read-out: efficacy
# Method in brief: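 Adult female ticks injected in the abdomen with active ingredient in DMSO, then held in a climate-controlled room. Efficacy (%) scored after 7 days from laying of fertile eggs, 100% meaning no tick laid fertile eggs.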
row,Structure (SMILES),pest or weed control at 0.02 mg
1,COc1nccnc1-n1nc(C(F)(F)F)c(-c2cc(C(F)(F)F)cc(C(F)(F)F)c2)c1N [Ex. 14],100%
2,COc1nccnc1-n1nc(C(F)(F)F)c(-c2cc(Cl)c3c(c2)OCO3)c1N [Ex. 48],100%
3,COc1nccnc1-n1nc(C)c(-c2cc(Cl)c3c(c2)OCO3)c1N [Ex. 75],100%
4,CCc1nn(-c2nccnc2OC)c(N)c1-c1cc(Cl)c2c(c1)OCO2 [Ex. 76],100%

# System: not listed separately
# Assay: logP by HPLC on reversed-phase columns (C 18), EEC Directive 79/831 Annex V.A8
# Format: physicochemical
# Conditions: reversed-phase C18 HPLC column, pH 2.7, * LC-MS, acidic range pH 2.7, 0.1% aqueous formic acid and acetonitrile; read-out: log P
# From the text: [table] The calibration is effected with unbranched alkan-2-ones (having 3 to 16 carbon atoms) with known logP values (logP values determined on the basis of the retention times by linear interpolation between two successive alkanones).
row,Structure (SMILES),chromatographic logP
1,COc1nccnc1-n1nc(C(F)(F)F)c(-c2cc(C(F)(F)F)cc(C(F)(F)F)c2)c1N [Ex. 14],4.2
2,COc1nccnc1-n1nc(C(F)(F)F)c(-c2cc(Cl)c3c(c2)OCO3)c1N [Ex. 48],3.14
3,COc1nccnc1-n1nc(C)c(-c2cc(Cl)c3c(c2)OCO3)c1N [Ex. 75],2.26
4,CCc1nn(-c2nccnc2OC)c(N)c1-c1cc(Cl)c2c(c1)OCO2 [Ex. 76],2.57

# System: larvae of the mustard beetle (Phaedon cochleariae)
# Assay: Phaedon test (PHAECO spray treatment)
# Format: in vivo
# Conditions: Phaedon cochleariae, 168 h, Chinese cabbage discs, after 7 days, read-out: efficacy
# Method in brief: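 Chinese cabbage leaf discs were sprayed with compound formulated in acetone/dimethylformamide with alkylaryl polyglycol ether emulsifier and diluted in emulsifier-containing water. After drying, discs were populated with mustard beetle larvae. Efficacy (% larvae killed; 100% = all dead) was scored after 7 days.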
row,Structure (SMILES),pest or weed control at 500 g/ha
1,COc1nccnc1-n1nc(C(F)(F)F)c(-c2cc(C(F)(F)F)cc(C(F)(F)F)c2)c1N [Ex. 14],100%
2,COc1nccnc1-n1nc(C(F)(F)F)c(-c2cc(Cl)c3c(c2)OCO3)c1N [Ex. 48],100%
3,COc1nccnc1-n1nc(C)c(-c2cc(Cl)c3c(c2)OCO3)c1N [Ex. 75],100%
4,CCc1nn(-c2nccnc2OC)c(N)c1-c1cc(Cl)c2c(c1)OCO2 [Ex. 76],100%

# System: Lucilia cuprina larvae
# Assay: Lucilia cuprina test (LUCICU)
# Format: in vivo
# Conditions: 48 h, treated horse meat, after 2 days, read-out: efficacy (kill)
# Method: (§1) Lucilia cuprina Test (LUCICU) Solvent: dimethyl sulphoxide To prepare an appropriate active ingredient formulation, 10 mg of active ingredient are mixed with 0.5 ml of dimethyl sulphoxide and the concentrate is diluted with water to the desired concentration. Vessels containing horse meat treated with the active ingredient preparation of the desired concentration are populated with about 20 Lucilia cuprina larvae. After 2 days, the kill in % is determined. 100% means that all of the larvae have been killed; 0% means that none of the larvae have been killed.
row,Structure (SMILES),pest or weed control at 100 ppm
1,COc1nccnc1-n1nc(C(F)(F)F)c(-c2cc(C(F)(F)F)cc(C(F)(F)F)c2)c1N [Ex. 14],100%
2,COc1nccnc1-n1nc(C(F)(F)F)c(-c2cc(Cl)c3c(c2)OCO3)c1N [Ex. 48],100%
3,COc1nccnc1-n1nc(C)c(-c2cc(Cl)c3c(c2)OCO3)c1N [Ex. 75],100%
4,CCc1nn(-c2nccnc2OC)c(N)c1-c1cc(Cl)c2c(c1)OCO2 [Ex. 76],100%

# System: red spider mite (Tetranychus urticae)
# Assay: Tetranychus test, OP-resistant (TETRUR spray treatment)
# Format: in vivo
# Conditions: Tetranychus urticae, foliar, 144 h, 500 g/ha, bean leaf discs, after 6 days, read-out: efficacy
# Method in brief: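 Bean leaf discs (Phaseolus vulgaris) infested with all mite stages were sprayed with active ingredient diluted in emulsifier-containing water at the desired concentration. Mortality read after 6 days as % efficacy, where 100% = all mites killed and 0% = none killed.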
row,Structure (SMILES),pest or weed control at 500 g/ha
1,COc1nccnc1-n1nc(C(F)(F)F)c(-c2cc(C(F)(F)F)cc(C(F)(F)F)c2)c1N [Ex. 14],100%
2,COc1nccnc1-n1nc(C(F)(F)F)c(-c2cc(Cl)c3c(c2)OCO3)c1N [Ex. 48],100%
3,COc1nccnc1-n1nc(C)c(-c2cc(Cl)c3c(c2)OCO3)c1N [Ex. 75],100%

# System: adult Musca domestica
# Assay: Musca domestica test
# Format: in vivo
# Conditions: 20 ppm; after 2 days
# Method: as §1, with “Musca domestica” for “Lucilia cuprina”, “Test” for “Test (LUCICU)”, “a sponge” for “horse meat”, “adult Musca domestica.” for “about 20 Lucilia cuprina larvae.”, “flies” for “larvae”
row,Structure (SMILES),efficacy (kill)
1,COc1nccnc1-n1nc(C(F)(F)F)c(-c2cc(C(F)(F)F)cc(C(F)(F)F)c2)c1N [Ex. 14],90%
2,COc1nccnc1-n1nc(C(F)(F)F)c(-c2cc(Cl)c3c(c2)OCO3)c1N [Ex. 48],90%

# Same assay, conditions: 100 ppm; after 2 days
row,Structure (SMILES),efficacy (kill)
1,COc1nccnc1-n1nc(C)c(-c2cc(Cl)c3c(c2)OCO3)c1N [Ex. 75],100%
2,CCc1nn(-c2nccnc2OC)c(N)c1-c1cc(Cl)c2c(c1)OCO2 [Ex. 76],80%

# System: caterpillars of the armyworm (Spodoptera frugiperda)
# Assay: Spodoptera frugiperda test (SPODFR spray treatment)
# Format: in vivo
# Conditions: Spodoptera frugiperda, foliar, 168 h, maize leaf discs, after 7 days, read-out: efficacy
# Method in brief: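 Maize leaf discs sprayed with the compound at the desired concentration, formulated in acetone/dimethylformamide with alkylaryl polyglycol ether emulsifier and diluted in water, then infested with armyworm caterpillars after drying. Efficacy read after 7 days as % caterpillars killed (100% = all dead, 0% = none).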
row,Structure (SMILES),pest or weed control at 500 g/ha
1,COc1nccnc1-n1nc(C(F)(F)F)c(-c2cc(C(F)(F)F)cc(C(F)(F)F)c2)c1N [Ex. 14],100%
2,COc1nccnc1-n1nc(C(F)(F)F)c(-c2cc(Cl)c3c(c2)OCO3)c1N [Ex. 48],100%
3,COc1nccnc1-n1nc(C)c(-c2cc(Cl)c3c(c2)OCO3)c1N [Ex. 75],100%
4,CCc1nn(-c2nccnc2OC)c(N)c1-c1cc(Cl)c2c(c1)OCO2 [Ex. 76],83%

# System: adult engorged Boophilus microplus females of the SP-resistant Parkhurst strain
# Assay: Boophilus microplus (dip)
# Format: in vivo
# Conditions: Rhipicephalus microplus, 168 h, after 7 days, laying of fertile eggs, read-out: efficacy
# Method: Boophilus microplus (dip)
# Test animals: adult engorged Boophilus microplus females of the SP-resistant Parkhurst strain
# Solvent: dimethyl sulphoxide
# 10 mg of active ingredient are dissolved in 0.5 ml of dimethyl sulphoxide. For the purpose of preparing a suitable formulation, the active ingredient solution is diluted with water to the concentration desired in each case. This active ingredient preparation is pipetted into tubes. 8-10 ticks are transferred into a further tube with holes. The tube is immersed into the active ingredient formulation, and all ticks are completely wetted. After the liquid has run out, the ticks are transferred onto filter discs in plastic dishes and stored in a climate-controlled room. The activity is assessed after 7 days by laying of fertile eggs. Eggs whose fertility is not outwardly visible are stored in glass tubes in a climate-controlled cabinet until the larvae hatch. Efficacy of 100% means that none of the ticks has laid any fertile eggs.
row,Structure (SMILES),pest or weed control at 100 ppm
1,COc1nccnc1-n1nc(C(F)(F)F)c(-c2cc(C(F)(F)F)cc(C(F)(F)F)c2)c1N [Ex. 14],90%
2,COc1nccnc1-n1nc(C(F)(F)F)c(-c2cc(Cl)c3c(c2)OCO3)c1N [Ex. 48],100%
3,COc1nccnc1-n1nc(C)c(-c2cc(Cl)c3c(c2)OCO3)c1N [Ex. 75],100%
4,CCc1nn(-c2nccnc2OC)c(N)c1-c1cc(Cl)c2c(c1)OCO2 [Ex. 76],100%

# System: green peach aphid (Myzus persicae)
# Assay: Myzus test (MYZUPE spray treatment)
# Format: in vivo
# Conditions: Myzus persicae, 144 h, Chinese cabbage discs, after 6 days, read-out: efficacy
# Method: Myzus Test (MYZUPE Spray Treatment) Solvent: 78 parts by weight of acetone • • 1.5 parts by weight of dimethylformamide Emulsifier: 0.5 part by weight of alkylaryl polyglycol ether To prepare an appropriate active ingredient preparation, 1 part by weight of active ingredient is mixed with the stated amounts of solvent and emulsifier, and the concentrate is diluted with emulsifier-containing water to the desired concentration. Discs of Chinese cabbage (Brassica pekinensis) infested by all stages of the green peach aphid (Myzus persicae) are sprayed with an active ingredient preparation of the desired concentration. After 6 days, the efficacy in % is determined. 100% means that all of the aphids have been destroyed; 0% means that none of the aphids have been destroyed.
row,Structure (SMILES),pest or weed control at 500 g/ha
1,COc1nccnc1-n1nc(C(F)(F)F)c(-c2cc(C(F)(F)F)cc(C(F)(F)F)c2)c1N [Ex. 14],100%
2,COc1nccnc1-n1nc(C(F)(F)F)c(-c2cc(Cl)c3c(c2)OCO3)c1N [Ex. 48],90%
3,COc1nccnc1-n1nc(C)c(-c2cc(Cl)c3c(c2)OCO3)c1N [Ex. 75],100%
4,CCc1nn(-c2nccnc2OC)c(N)c1-c1cc(Cl)c2c(c1)OCO2 [Ex. 76],80%
